For ten compounds, IC50 and inhibition results are on record in ChEMBL document CHEMBL4477246, “New small molecule inhibitors of histone methyl transferase DOT1L with a nitrile as a non-traditional replacement for heavy halogen atoms” (Bioorg Med Chem Lett, 2016).

For orientation: pIC50 means −log10 of the IC50, conventionally taken in molar units. Broadly, the inhibition is the drop in the measured response relative to a control, in per cent.

pIC50: −log10 of the molar value.

Assay [1] has as its target T1, Histone-lysine N-methyltransferase, H3 lysine-79 specific (Homo sapiens, UniProt Q8TEK3). The assay is described as follows: Inhibition of DOT1L (unknown origin) using chicken nucleosome as substrate in presence of [3H]SAM incubated for 1 hr by TopCount method.
Target sequence in this assay (Q8TEK3 whole entry): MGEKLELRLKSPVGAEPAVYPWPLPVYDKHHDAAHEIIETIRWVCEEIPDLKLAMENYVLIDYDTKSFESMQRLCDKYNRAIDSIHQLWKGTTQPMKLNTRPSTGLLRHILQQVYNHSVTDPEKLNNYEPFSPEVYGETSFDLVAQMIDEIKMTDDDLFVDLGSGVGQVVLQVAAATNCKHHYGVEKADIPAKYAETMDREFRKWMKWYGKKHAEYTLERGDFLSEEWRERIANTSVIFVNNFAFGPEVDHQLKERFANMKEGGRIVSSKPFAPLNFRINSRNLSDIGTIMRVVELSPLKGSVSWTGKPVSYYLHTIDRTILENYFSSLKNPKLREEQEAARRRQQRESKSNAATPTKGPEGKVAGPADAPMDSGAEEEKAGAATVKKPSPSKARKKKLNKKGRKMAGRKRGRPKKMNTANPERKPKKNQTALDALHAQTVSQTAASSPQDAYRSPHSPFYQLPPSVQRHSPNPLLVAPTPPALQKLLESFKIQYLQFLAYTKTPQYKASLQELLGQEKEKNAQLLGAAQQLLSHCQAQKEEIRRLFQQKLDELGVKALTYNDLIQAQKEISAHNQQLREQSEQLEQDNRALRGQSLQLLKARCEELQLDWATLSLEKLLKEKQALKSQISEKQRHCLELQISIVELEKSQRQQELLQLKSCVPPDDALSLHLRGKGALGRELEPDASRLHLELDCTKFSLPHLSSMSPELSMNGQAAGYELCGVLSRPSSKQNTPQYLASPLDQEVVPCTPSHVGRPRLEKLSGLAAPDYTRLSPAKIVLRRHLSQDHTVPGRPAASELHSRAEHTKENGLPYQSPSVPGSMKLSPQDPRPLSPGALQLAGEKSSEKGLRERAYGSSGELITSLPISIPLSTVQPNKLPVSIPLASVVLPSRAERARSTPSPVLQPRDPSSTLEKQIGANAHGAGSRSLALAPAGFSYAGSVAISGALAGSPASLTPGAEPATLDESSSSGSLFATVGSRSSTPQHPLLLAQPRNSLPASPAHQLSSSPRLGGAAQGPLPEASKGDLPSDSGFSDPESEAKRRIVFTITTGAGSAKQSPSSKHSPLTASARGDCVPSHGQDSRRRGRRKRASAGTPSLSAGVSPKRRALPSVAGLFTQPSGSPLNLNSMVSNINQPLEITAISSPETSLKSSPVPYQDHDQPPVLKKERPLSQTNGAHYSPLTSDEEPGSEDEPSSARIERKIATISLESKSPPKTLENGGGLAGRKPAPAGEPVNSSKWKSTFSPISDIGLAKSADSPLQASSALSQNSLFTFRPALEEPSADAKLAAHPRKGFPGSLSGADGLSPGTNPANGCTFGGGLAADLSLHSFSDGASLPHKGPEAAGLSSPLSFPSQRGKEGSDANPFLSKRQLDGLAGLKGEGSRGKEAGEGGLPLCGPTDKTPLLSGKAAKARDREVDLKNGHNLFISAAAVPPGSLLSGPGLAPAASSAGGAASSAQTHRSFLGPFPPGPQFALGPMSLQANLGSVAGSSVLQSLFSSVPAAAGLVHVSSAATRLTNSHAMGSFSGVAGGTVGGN
Assay [2] deals with Histone-lysine N-methyltransferase SUV39H2 (Homo sapiens, UniProt Q9H5I1). The assay can be described thus: Inhibition of SUV39H2 (unknown origin).
Assay [3] has as its target T2, Histone-lysine N-methyltransferase SETD7 (Homo sapiens, UniProt Q8WTS6).
T2 sequence (Q8WTS6 whole entry): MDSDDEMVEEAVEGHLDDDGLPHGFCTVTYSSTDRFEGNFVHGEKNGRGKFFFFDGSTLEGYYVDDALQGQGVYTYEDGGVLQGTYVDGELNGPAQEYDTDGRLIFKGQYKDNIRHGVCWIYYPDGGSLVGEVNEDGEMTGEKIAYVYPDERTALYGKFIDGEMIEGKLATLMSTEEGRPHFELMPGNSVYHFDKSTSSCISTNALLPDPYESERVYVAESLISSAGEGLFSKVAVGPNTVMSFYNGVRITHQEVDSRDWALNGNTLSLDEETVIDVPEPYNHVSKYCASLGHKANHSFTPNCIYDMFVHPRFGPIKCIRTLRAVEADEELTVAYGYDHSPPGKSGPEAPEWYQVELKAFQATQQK
The assay is described as follows: Inhibition of SETD7 (unknown origin).

The target of assay [4] is Protein arginine N-methyltransferase 3 (Homo sapiens, UniProt O60678). The assay is described as follows: Inhibition of PRMT3 (unknown origin).
Assay [5] has as its target Histone-lysine N-methyltransferase EZH2 (Homo sapiens, UniProt Q15910). The assay is described as follows: Inhibition of EZH2 (unknown origin).
Assay [6] has as its target DNA (cytosine-5)-methyltransferase 1 (Homo sapiens, UniProt P26358). The assay is described as follows: Inhibition of DNMT1 (unknown origin).
Assay [7] concerns the target Protein arginine N-methyltransferase 5 (Homo sapiens, UniProt O14744). The assay is described as follows: Inhibition of PRMT5 (unknown origin).
Assay [8] has as its target T3, Histone-lysine N-methyltransferase EHMT2 (Homo sapiens, UniProt Q96KQ7).
T3 sequence (Q96KQ7 whole entry): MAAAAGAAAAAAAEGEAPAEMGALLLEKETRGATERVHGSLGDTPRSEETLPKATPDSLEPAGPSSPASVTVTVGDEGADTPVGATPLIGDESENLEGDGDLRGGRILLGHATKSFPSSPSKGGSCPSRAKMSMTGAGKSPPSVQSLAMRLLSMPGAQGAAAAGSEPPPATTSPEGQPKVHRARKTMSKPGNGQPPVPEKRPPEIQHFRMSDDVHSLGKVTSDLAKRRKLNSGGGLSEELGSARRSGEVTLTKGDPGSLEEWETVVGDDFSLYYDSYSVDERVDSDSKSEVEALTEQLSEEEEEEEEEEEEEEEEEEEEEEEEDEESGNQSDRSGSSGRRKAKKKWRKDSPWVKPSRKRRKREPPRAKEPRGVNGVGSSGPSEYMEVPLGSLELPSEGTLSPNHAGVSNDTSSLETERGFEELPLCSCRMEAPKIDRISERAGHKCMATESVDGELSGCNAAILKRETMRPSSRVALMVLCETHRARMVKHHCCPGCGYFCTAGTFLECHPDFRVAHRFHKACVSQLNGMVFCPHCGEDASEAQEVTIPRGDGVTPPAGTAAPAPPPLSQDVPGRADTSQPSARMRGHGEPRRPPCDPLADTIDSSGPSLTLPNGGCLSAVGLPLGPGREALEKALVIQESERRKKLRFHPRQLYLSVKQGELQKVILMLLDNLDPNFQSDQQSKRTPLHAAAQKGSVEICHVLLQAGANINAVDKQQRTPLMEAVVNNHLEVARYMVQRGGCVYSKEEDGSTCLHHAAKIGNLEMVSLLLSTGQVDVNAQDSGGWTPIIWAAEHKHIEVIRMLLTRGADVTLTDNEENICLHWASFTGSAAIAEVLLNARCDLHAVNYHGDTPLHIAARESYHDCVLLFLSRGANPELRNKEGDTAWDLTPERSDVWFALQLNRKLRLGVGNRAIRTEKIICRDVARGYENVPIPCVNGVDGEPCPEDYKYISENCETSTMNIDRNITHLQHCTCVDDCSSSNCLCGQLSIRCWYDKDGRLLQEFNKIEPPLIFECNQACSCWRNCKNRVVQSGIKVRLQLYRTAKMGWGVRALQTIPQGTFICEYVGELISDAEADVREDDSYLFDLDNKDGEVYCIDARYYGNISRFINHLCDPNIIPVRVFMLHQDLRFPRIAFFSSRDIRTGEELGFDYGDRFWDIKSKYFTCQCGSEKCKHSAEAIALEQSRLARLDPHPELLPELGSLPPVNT
The assay is described as follows: Inhibition of G9a (unknown origin).

Assay [9] has as its target T1, Histone-lysine N-methyltransferase, H3 lysine-79 specific. The assay can be described thus: Inhibition of DOT1L (unknown origin) at 250 uM using chicken nucleosome as substrate in presence of [3H]SAM incubated for 1 hr by TopCount method.
Target sequence in this assay (Q8TEK3 whole entry, looked up): as the sequence (Q8TEK3 whole entry) above

Chain of Protein arginine N-methyltransferase 3 (O60678 whole entry): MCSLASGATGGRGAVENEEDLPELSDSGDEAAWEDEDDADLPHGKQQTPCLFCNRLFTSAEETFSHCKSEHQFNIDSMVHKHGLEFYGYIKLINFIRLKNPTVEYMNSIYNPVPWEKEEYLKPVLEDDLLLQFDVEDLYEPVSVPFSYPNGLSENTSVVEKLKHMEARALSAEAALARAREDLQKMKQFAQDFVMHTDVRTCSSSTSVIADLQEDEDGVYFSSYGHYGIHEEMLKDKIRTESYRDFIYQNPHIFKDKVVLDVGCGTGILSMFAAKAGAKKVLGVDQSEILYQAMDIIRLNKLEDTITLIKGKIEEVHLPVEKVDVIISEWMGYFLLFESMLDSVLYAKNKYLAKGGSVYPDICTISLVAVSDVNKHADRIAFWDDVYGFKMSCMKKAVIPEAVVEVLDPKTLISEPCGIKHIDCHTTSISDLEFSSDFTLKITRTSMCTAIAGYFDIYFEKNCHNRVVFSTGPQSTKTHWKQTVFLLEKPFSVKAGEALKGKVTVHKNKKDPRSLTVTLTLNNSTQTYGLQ
Chain of Histone-lysine N-methyltransferase SUV39H2 (Q9H5I1 whole entry): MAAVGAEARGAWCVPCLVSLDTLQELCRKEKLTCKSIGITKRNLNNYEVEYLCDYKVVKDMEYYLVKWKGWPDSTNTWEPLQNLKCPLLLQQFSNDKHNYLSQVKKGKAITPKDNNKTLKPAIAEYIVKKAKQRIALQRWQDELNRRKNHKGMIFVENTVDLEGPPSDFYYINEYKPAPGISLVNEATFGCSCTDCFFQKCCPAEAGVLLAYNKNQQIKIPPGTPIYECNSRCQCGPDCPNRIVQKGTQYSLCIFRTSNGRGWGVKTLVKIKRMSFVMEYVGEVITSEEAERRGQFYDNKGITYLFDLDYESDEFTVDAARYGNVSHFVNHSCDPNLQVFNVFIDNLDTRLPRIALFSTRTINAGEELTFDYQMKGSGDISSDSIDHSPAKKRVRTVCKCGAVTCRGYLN
Chain of Protein arginine N-methyltransferase 5 (O14744 whole entry): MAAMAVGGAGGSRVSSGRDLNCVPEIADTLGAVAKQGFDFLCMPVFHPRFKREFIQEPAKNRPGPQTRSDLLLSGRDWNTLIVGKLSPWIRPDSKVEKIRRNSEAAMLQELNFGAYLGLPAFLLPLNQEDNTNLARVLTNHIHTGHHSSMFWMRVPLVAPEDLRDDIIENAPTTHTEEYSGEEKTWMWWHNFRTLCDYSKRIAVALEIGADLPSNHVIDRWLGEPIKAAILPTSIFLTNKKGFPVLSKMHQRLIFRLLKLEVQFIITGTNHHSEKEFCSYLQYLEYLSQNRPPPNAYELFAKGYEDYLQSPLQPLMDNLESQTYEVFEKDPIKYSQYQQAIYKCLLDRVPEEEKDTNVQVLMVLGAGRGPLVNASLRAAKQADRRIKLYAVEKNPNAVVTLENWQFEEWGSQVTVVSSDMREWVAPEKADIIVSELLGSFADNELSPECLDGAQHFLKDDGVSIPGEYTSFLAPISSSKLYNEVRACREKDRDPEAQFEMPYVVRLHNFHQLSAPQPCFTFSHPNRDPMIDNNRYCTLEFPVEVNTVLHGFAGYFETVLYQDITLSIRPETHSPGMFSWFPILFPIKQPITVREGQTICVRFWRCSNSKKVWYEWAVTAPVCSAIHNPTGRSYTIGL
Chain of Histone-lysine N-methyltransferase EZH2 (Q15910 whole entry): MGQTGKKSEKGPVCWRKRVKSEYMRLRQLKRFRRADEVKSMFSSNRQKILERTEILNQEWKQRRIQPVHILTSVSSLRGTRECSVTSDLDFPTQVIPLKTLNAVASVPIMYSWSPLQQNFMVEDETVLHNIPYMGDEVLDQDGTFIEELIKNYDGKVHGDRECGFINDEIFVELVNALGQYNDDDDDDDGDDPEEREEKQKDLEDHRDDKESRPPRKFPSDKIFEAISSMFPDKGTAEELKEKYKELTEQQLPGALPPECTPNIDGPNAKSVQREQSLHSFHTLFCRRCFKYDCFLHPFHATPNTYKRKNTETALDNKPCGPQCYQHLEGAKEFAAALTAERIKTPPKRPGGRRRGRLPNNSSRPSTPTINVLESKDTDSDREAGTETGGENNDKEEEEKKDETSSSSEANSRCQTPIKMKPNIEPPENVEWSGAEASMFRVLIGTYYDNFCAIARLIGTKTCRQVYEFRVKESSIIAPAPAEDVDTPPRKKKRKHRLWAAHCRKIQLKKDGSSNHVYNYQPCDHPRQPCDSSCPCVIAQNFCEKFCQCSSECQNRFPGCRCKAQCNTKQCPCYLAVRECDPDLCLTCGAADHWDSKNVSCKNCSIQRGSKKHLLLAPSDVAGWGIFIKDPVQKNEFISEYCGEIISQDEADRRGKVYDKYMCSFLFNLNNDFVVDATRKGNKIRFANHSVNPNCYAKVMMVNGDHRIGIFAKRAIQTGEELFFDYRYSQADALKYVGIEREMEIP

As to `N#Cc1cn([C@@H]2O[C@H](CO)[C@@H](O)[C@H]2O)c2ncnc(N)c12` [TOYOCAMYCIN], the negative-log IC50 (pIC50) in assay [1] is 4.36.
On the same count and under the same terms, to `Nc1ncnc2c1c(-c1ncco1)cn2[C@@H]1O[C@H](CO)[C@@H](O)[C@H]1O` belongs 4.37; to `NC(=O)c1cn([C@@H]2O[C@H](CO)[C@@H](O)[C@H]2O)c2ncnc(N)c12` [SANGIVAMYCIN], 4.59.
For the compound `Nc1ncnc2c1ncn2[C@@H]1O[C@H](CSCC[C@H](N)C(=O)O)[C@@H](O)[C@H]1O` [S-ADENOSYLHOMOCYSTEINE], the negative logarithm of the IC50 (pIC50) in assay [2] (read-out: IC50) was 4.66; in assay [3] (read-out: IC50) it was 4.33; in assay [4], 5.70.
As to `C#Cc1cn([C@@H]2O[C@H](CO)[C@@H](O)[C@H]2O)c2ncnc(N)c12`, the pIC50 in assay [1] was 4.39.
The same measure, in the same setting: in the case of `Nc1ncnc2c1c(I)nn2[C@@H]1O[C@H](CO)[C@@H](O)[C@H]1O` it was 4.66.
Regarding `N#Cc1cn([C@@H]2O[C@H](CSCC[C@H](N)C(=O)O)[C@@H](O)[C@H]2O)c2ncnc(N)c12`, the IC50 entry in assay [2], in assay [5] and in assay [3] was “Not Active” throughout. Moreover, the pIC50 in [6] was 6.82; in [7], 5.62; in assay [4], 6.06; in assay [8], 4.00.
Regarding `N#Cc1c(Br)n([C@@H]2O[C@H](CO)[C@@H](O)[C@H]2O)c2ncnc(N)c12`, the negative logarithm of the IC50 (pIC50) in assay [1] was 3.70.
`COc1ccc(Cc2cn([C@@H]3O[C@H](CO)[C@@H](O)[C@H]3O)c3ncnc(N)c23)cc1`: the inhibition in assay [9] was 42%.
Regarding `Nc1ncnc2c1c(F)cn2[C@@H]1O[C@H](CO)[C@@H](O)[C@H]1O`, in [1], the pIC50 is 3.70.
